Measurements taken from article PMC12144822 (Parasites & Vectors, 2025).

Assays:
Experiment in all cases: Two-electrode voltage-clamp concentration-activation by the natural agonist, receptor expressed in Xenopus oocytes
Format in all cases: cell-based
Design in all cases: The corresponding open reading frames (ORF) were cloned into the pT7-TS transcription vector; expressed in transfected cells; host or cells: Xenopus laevis oocytes, cRNA injection
Settings in all cases: concentration-activation curve
[1] = target: Hsa-GABA α2β3γ2 (Homo sapiens, UniProt P18507+P28472+P47869)
Sequence of Hsa-GABA α2β3γ2 (P47869 29-451): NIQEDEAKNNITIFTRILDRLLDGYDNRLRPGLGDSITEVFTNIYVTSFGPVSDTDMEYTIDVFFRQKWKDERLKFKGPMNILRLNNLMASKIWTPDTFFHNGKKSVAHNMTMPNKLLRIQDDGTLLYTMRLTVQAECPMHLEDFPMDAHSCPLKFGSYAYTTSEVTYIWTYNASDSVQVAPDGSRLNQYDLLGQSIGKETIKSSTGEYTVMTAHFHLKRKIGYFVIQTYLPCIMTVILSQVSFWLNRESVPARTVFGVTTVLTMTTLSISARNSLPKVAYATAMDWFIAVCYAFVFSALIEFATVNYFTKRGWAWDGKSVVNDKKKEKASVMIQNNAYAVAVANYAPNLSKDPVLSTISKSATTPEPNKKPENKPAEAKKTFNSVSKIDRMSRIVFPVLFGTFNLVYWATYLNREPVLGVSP
Sequence of Hsa-GABA α2β3γ2 (P28472 26-473): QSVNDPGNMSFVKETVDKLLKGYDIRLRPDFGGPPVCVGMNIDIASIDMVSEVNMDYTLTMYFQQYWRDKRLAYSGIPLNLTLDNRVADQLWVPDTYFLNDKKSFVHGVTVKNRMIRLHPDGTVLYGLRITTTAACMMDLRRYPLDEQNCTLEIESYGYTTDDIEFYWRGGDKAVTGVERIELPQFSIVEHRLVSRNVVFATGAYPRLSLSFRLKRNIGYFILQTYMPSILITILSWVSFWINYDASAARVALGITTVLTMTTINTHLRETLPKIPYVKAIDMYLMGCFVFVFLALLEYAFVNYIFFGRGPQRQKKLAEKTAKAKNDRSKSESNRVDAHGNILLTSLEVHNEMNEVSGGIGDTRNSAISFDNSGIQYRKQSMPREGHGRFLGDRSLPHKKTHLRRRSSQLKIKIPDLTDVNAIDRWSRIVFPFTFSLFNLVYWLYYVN
Sequence of Hsa-GABA α2β3γ2 (P18507 40-467 isoform P18507-1 limits assumed): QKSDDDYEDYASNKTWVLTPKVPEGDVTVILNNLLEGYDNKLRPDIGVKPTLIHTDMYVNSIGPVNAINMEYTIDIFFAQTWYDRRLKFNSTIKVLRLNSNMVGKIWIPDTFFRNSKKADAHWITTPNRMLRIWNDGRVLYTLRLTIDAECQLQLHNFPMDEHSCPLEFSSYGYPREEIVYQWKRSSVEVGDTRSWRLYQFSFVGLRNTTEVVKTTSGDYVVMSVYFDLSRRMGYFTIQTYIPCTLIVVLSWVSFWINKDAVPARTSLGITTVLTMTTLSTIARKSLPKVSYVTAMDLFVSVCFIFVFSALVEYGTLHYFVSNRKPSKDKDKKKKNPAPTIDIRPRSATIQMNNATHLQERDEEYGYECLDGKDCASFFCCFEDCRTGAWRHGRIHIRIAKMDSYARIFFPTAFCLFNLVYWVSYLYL
Source text: (§1) Complementary DNA (cDNA) encoding for the human GABAA proteins α1 (NM_001127645.2), α2 (NM_001377146.1), α3 (KJ620007.1), α4 (NM_000809.4), α5 (NM_000810.4), α6 (NM_000811.3), β2 (XM_054352312.1), β3 (M82919.1), γ2 (NM_000816.3) and δ (NM_000815.5) were ordered from Genewiz (www.genewiz.com; Leipzig, Germany); for each gene, GenBank accession numbers are provided in parentheses. When necessary, silent mutations were introduced to break NheI or XhoI internal restriction sites. The corresponding open reading frames (ORF) were cloned into the pT7-TS transcription vector (introducing X. laevis β-globin untranslated cDNA to the 5’ and 3’ ends of the gene), following a procedure described in detail in a previous publication. The same process was used to obtain cDNA encoding canine GABAA proteins α4 (XM_025435560.1), α6 (XM_022417729.1) and δ (XM_005620414.2). Gene α2 (XM_025435664.1), α3 (XM_549343.5), α5 (XM_545805.6) and β3 (XM_025437408.1) were obtained by PCR; GenBank reference accession numbers are provided in parentheses. RNA extraction, cDNA synthesis and PCR amplification were performed as described previously. Total RNA was extracted from a piece of dog brain (Beagle breed; Canis lupus familiaris) from which 1 µg of total RNA (DNase-treated) was reverse-transcribed to cDNA using a (dT)30 primer and SuperScript III Reverse Transcriptase (Invitrogen, Thermo Fisher Scientific, Waltham, MA, USA). Gene-specific primers (Additional file 1: Table S1) were designed using Primer 3 software (http://frodo.wi.mit.edu/). […] The cycling conditions were: 98 °C for 30 s; then 38 cycles of 98 °C for 10 s, 58 °C for 30 s and 72 °C for 90 s; followed by 72 °C for 5 min. The dog subunits α1 (XM_546261.5), β2 (XM_014113040.1) and γ2 (XM_546259.5) had been previously amplified and described in a study by Rufener et al..
(§2) Defoliculated X. laevis oocytes ordered from Ecocyte Bioscience (Dortmund, Germany) were microinjected with 15–25 nl of cRNA solution (5–50 ng/μl) per oocyte using an automated injector (Roboinject; Multi Channel Systems MCS GmbH, Reutlingen, Germany) and then incubated at 18 °C. All recordings were made 1–5 days post-cRNA injection and were performed at 18 ± 4 °C. Cells were superfused with OR2 medium (NaCl 88 mM, KCl 2.5 mM, HEPES 5 mM, CaCl2•2H2O 1.8 mM, MgCl2•7H2O 1.0 mM, pH 7.4). To ensure that γ2 subunits were integrated into the heteropentamers, we injected fivefold more γ2 than the other subunit cRNAs. Diazepam is a positive allosteric modulator of GABAR only if γ2 subunits are present. Therefore, we used this method to confirm the presence of human and dog GABAA receptor containing the γ2 subunit.
(§3) Voltage-clamp measurements were performed as described by Rufener et al.. Oocytes were impaled with two electrodes filled with 3 M KCl, and their membrane potentials were maintained at − 80 mV throughout the experiment. […] Recordings were performed using an automated process equipped with standard two-electrode voltage-clamp configuration (HiClamp system; Multi Channel Systems MCS GmbH). Data were filtered at 10 Hz, captured at 100 Hz and analyzed using proprietary data acquisition and analysis software in MATLAB (Mathworks Inc., Natick, MA, USA). Additional analyses were performed using Excel (Microsoft, Redmond, WA, USA). […] Graphing the maximum inward currents against the log of agonist concentration produces typical concentration-activation and concentration-inhibition curves, which can be accurately described using individual Hill equations.

[2] = target: Hsa-GABA α2β2γ2 (Homo sapiens, UniProt P18507+P47869+P47870)
Sequence of Hsa-GABA α2β2γ2 (P47869 29-451): as the sequence (P47869 29-451) above
Sequence of Hsa-GABA α2β2γ2 (P47870 26-474 isoform P47870-1 limits assumed): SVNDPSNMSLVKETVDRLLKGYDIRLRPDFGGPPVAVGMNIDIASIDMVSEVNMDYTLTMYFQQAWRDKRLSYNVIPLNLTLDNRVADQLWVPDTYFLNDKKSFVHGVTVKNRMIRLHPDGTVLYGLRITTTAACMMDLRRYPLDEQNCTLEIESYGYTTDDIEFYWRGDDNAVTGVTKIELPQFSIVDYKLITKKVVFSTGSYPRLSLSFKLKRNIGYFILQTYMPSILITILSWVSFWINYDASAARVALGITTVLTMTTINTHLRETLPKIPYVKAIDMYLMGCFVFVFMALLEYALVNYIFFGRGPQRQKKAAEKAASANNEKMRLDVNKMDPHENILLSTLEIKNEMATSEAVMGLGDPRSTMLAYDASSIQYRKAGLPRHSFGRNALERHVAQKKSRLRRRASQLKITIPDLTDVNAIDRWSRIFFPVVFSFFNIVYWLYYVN
Sequence of Hsa-GABA α2β2γ2 (P18507 40-467 isoform P18507-1 limits assumed): as the sequence (P18507 40-467 isoform P18507-1 limits assumed) above
Source text: as §1, §2, §3

[3] = target: Hsa-GABA α3β2γ2 (Homo sapiens, UniProt P18507+P34903+P47870)
Sequence of Hsa-GABA α3β2γ2 (P34903 29-492): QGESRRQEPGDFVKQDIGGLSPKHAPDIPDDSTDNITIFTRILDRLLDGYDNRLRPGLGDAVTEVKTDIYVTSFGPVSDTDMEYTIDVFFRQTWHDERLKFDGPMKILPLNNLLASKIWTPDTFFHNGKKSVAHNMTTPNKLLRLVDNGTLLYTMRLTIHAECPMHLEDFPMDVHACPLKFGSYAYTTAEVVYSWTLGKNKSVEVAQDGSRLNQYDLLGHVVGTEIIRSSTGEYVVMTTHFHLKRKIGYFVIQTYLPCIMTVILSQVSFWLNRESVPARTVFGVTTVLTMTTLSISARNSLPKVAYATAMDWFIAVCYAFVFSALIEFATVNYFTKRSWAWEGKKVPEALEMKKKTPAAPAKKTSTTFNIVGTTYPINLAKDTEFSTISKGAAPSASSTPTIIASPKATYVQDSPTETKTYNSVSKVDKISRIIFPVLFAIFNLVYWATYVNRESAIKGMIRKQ
Sequence of Hsa-GABA α3β2γ2 (P47870 26-474 isoform P47870-1 limits assumed): as the sequence (P47870 26-474 isoform P47870-1 limits assumed) above
Sequence of Hsa-GABA α3β2γ2 (P18507 40-467 isoform P18507-1 limits assumed): as the sequence (P18507 40-467 isoform P18507-1 limits assumed) above
Source text: as §1, §2, §3

[4] = target: Hsa-GABA α5β2γ2 (Homo sapiens, UniProt P18507+P31644+P47870)
Sequence of Hsa-GABA α5β2γ2 (P31644 32-462): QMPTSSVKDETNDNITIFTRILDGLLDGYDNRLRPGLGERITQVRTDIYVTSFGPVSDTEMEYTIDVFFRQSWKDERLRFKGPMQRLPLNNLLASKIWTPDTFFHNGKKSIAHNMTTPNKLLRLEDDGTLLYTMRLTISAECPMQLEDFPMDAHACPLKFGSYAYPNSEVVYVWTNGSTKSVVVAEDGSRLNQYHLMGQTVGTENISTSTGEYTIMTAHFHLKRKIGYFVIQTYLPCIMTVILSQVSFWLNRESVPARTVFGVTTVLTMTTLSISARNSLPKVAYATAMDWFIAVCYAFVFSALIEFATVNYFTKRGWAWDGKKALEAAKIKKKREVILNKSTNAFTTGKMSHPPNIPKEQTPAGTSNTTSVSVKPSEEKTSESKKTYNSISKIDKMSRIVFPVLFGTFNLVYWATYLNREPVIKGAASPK
Sequence of Hsa-GABA α5β2γ2 (P47870 26-474 isoform P47870-1 limits assumed): as the sequence (P47870 26-474 isoform P47870-1 limits assumed) above
Sequence of Hsa-GABA α5β2γ2 (P18507 40-467 isoform P18507-1 limits assumed): as the sequence (P18507 40-467 isoform P18507-1 limits assumed) above
Source text: as §1, §2, §3

[5] = target: Hsa-GABA α6β2γ2 (Homo sapiens, UniProt P18507+P47870+Q16445)
Sequence of Hsa-GABA α6β2γ2 (Q16445 20-453): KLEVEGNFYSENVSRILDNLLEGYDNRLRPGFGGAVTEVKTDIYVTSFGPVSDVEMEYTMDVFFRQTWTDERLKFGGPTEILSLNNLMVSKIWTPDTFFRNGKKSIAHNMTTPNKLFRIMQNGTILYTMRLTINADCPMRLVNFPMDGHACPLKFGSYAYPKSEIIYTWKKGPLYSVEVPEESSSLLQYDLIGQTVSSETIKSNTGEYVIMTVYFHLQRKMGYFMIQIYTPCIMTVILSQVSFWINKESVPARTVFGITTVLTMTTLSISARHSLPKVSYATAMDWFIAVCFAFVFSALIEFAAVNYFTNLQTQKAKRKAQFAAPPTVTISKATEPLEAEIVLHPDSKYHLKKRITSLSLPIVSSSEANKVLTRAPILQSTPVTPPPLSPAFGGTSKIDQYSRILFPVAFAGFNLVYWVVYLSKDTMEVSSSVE
Sequence of Hsa-GABA α6β2γ2 (P47870 26-474 isoform P47870-1 limits assumed): as the sequence (P47870 26-474 isoform P47870-1 limits assumed) above
Sequence of Hsa-GABA α6β2γ2 (P18507 40-467 isoform P18507-1 limits assumed): as the sequence (P18507 40-467 isoform P18507-1 limits assumed) above
Source text: as §1, §2, §3

[6] = target: Hsa-GABA α1β2γ2 (Homo sapiens, UniProt P14867+P18507+P47870)
Sequence of Hsa-GABA α1β2γ2 (P14867 28-456): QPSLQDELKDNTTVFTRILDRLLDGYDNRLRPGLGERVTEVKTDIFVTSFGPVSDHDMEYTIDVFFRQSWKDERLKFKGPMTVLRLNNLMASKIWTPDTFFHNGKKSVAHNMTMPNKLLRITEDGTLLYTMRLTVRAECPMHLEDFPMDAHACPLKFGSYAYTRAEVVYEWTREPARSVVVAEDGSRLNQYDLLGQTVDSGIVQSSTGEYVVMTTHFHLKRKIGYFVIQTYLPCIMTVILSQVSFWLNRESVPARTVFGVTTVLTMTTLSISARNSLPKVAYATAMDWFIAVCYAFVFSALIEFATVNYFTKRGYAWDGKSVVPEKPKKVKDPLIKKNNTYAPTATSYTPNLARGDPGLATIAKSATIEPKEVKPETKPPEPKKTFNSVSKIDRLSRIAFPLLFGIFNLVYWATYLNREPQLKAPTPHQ
Sequence of Hsa-GABA α1β2γ2 (P47870 26-474 isoform P47870-1 limits assumed): as the sequence (P47870 26-474 isoform P47870-1 limits assumed) above
Sequence of Hsa-GABA α1β2γ2 (P18507 40-467 isoform P18507-1 limits assumed): as the sequence (P18507 40-467 isoform P18507-1 limits assumed) above
Source text: as §1, §2, §3

Compound: NCCCC(=O)O [GABA, gamma-aminobutyric acid]
- nH (Hill coefficient) [1]: 1.2
- nH (Hill coefficient) [2]: 1.4
- nH (Hill coefficient) [3]: 1.2
- nH (Hill coefficient) [4]: 1.1
- nH (Hill coefficient) [5]: 1.1
- nH (Hill coefficient) [6]: 1.7
